Columns and labels:
LTD4 receptor = target: T1, LTD4 receptor (Cavia porcellus, UniProt Q2NNR5); assay: LTD4 RECEPTOR: inhibition of specific binding of [3H]-LTD4 to a membrane preparation of guinea-pig lung tissue; conditions: [3H]-LTD4, guinea-pig lung membranes; for IC50: graphically from dose-response curves, read-out: LTD4 receptor (concentration of tested compound causing 50% inhibition of specific binding)
T1 construct: membrane preparation of guinea-pig lung tissue; from tissue; host or cells: guinea-pig lung membranes
T1 sequence (Q2NNR5 1-340): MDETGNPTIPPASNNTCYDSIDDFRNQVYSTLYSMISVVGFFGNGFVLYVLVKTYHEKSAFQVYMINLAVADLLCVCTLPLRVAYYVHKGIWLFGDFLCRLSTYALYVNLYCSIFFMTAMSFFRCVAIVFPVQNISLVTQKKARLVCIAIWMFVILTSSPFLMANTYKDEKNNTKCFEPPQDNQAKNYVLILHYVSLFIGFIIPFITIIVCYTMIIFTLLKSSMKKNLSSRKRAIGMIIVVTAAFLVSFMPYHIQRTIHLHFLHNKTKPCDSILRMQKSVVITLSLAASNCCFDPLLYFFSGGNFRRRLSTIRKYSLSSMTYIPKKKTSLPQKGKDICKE
Experimental: Inhibition of the specific binding of [^3 H]-LTD4 to a membrane preparation of guinea-pig lung tissue was assayed by a modification of a method reported by Bruns et al [Life Sciences, Vol. 33, pp. 645-653 (1983)]and the data presented in Table II are micromolar concentrations of the tested compound causing 50% ihibition of specific binding determined graphically from dose-response curves.

5-lipoxygenase = target: T2, 5-lipoxygenase (Rattus norvegicus, UniProt P12527); assay: 5-LIPOX: inhibition of Ca++ ionophore (A23187) induced release of 5-lipoxygenase products (leukotriene B4 and 5-HETE) from [14C]arachidonic acid pre-labelled rat peritoneal neutrophils; format: cell-based; conditions: A23187-induced release of leukotriene B4 and 5-HETE, graphically from dose-response curves, read-out: 5-LIPOX (concentration of test compound causing 50% inhibition of control response)
T2 sequence (P12527 1-673): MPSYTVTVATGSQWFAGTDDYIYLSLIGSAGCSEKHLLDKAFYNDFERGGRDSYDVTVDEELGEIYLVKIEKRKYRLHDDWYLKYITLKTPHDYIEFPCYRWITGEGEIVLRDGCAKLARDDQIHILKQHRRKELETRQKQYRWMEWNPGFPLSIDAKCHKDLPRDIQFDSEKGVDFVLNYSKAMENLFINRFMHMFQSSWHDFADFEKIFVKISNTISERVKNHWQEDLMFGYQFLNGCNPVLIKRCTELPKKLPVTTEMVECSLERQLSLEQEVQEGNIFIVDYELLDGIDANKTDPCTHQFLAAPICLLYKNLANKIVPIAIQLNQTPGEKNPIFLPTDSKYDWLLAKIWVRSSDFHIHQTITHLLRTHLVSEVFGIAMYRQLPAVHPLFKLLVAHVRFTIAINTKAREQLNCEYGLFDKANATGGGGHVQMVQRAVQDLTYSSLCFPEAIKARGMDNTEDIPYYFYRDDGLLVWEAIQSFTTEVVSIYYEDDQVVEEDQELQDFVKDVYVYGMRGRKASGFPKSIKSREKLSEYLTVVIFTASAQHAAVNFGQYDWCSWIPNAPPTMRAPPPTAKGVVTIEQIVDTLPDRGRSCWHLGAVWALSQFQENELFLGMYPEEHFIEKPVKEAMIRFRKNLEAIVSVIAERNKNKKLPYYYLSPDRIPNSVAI
Source text: Inhibition of the Ca^++ ionophore (A23187) induced release of 5-lipoxygenase products, leukotriene B4 and 5-HETE, from [^14 C]arachidonic acid pre-labelled rat peritoneal neutrophils. Assayed by a modification of the method reported by Ahnfelt-Ronne et al [Biochemical Pharmacology, Vol. 31, No. 16, pp 2619-2624 (1982)]. Data presented in Table II are micromolar concentrations of test compound causing 50% inhibition of control response determined graphically from dose-response curves.

In the case of `c1cnc2c(c1)CCCC2Sc1nc2ccccc2s1` (stereo not shown) [Example 1, 8-(2-benzothiazolylthio)-5,6,7,8-tetrahydroquinoline], the IC50 (LTD4 receptor) is reported as 10 µM and the IC50 (5-lipoxygenase) is reported as 1.8 µM.
Compound `COc1ccc2nc(SC3CCCc4cccnc43)[nH]c2c1` (stereo not shown) [Example 2, 8-(6-methoxy-1H-benzimidazol-2-ylthio)-5,6,7,8-tetrahydroquinoline] has an IC50 (5-lipoxygenase) of 58 µM.
`c1cnc2c(c1)CCCC2Sc1nc2ccccc2[nH]1` (stereo not shown) [Example 3, 8-(1H-benzimidazol-2-ylthio)-5,6,7,8-tetrahydroquinoline] was tested, and the IC50 (LTD4 receptor) was over 100 µM and the IC50 (5-lipoxygenase) was 35.1 µM.
Work on `CCOC(=O)Cc1ccc2[nH]c(SC3CCCc4cccnc43)nc2c1` (stereo not shown) [Example 4, ethyl 2-[(5,6,7,8-tetrahydro-8-quinolinyl)-thio]-1H-benzimidazole-5-acetate] yielded an IC50 (5-lipoxygenase) of 20 µM.
`O=[N+]([O-])c1ccc2nc(SC3CCCc4cccnc43)[nH]c2c1` (stereo not shown) [Example 5, 8-(6-nitro-1H-benzimidazol-2-ylthio)-5,6,7,8-tetrahydroquinoline] was tested, and the IC50 (LTD4 receptor) was over 100 µM and the IC50 (5-lipoxygenase) was 6.6 µM.
Work on `Cc1ccc2nc(SC3CCCc4cccnc43)[nH]c2c1` (stereo not shown) [Example 6, 8-(6-methyl-1H-benzimidazol-2-ylthio)-5,6,7,8-tetrahydroquinoline] yielded an IC50 (LTD4 receptor) of 74 µM and an IC50 (5-lipoxygenase) of 5 µM.
For `Clc1cc2nc(SC3CCCc4cccnc43)[nH]c2cc1Cl` (stereo not shown) [Example 7, 8-(5,6-dichloro-1H-benzimidazol-2-ylthio)-5,6,7,8-tetrahydroquinoline], the IC50 (5-lipoxygenase) was 4.2 µM.
`Clc1ccc2nc(SC3CCCc4cccnc43)[nH]c2c1` (stereo not shown) [Example 8, 8-(6-chloro-1H-benzimidazol-2-ylthio)-5,6,7,8-tetrahydroquinoline] showed an IC50 (LTD4 receptor) of 6.3 µM and an IC50 (5-lipoxygenase) of 1.9 µM.
`c1cnc2c(c1)CCCC2Sc1nc2ccccc2o1` (stereo not shown) [Example 9, 8-(2-benzoxazolylthio)-5,6,7,8-tetrahydroquinoline] showed an IC50 (LTD4 receptor) of over 100 µM and an IC50 (5-lipoxygenase) of 16.9 µM.
`COC(=O)Cc1ccc2oc(SC3CCCc4cccnc43)nc2c1` (stereo not shown) [Example 10, methyl 2-[(5,6,7,8-tetrahydro-8-quinolinyl)-thio]benzoxazole-5-acetate] showed an IC50 (LTD4 receptor) of 12 µM and an IC50 (5-lipoxygenase) of 14.1 µM.
Work on `Clc1ccc2sc(SC3CCCc4cccnc43)nc2c1` (stereo not shown) [Example 11, 8-[(5-chloro-2-benzothiazolyl)thio]-5,6,7,8-tetrahydroquinoline] yielded an IC50 (LTD4 receptor) of 100 µM and an IC50 (5-lipoxygenase) of 1.5 µM.
With `Clc1ccc2nc(SC3CCCc4cccnc43)sc2c1` (stereo not shown) [Example 12] the IC50 (LTD4 receptor) was 8.9 µM and the IC50 (5-lipoxygenase) was 2.6 µM.
`CCOc1ccc2nc(SC3CCCc4cccnc43)sc2c1` (stereo not shown) [Example 13, 8-[(6-ethoxy-2-benzothiazolyl)thio]-5,6,7,8-tetrahydroquinoline] was tested, and the IC50 (LTD4 receptor) was 9 µM and the IC50 (5-lipoxygenase) was 1.2 µM.
For `O=c1[nH]c(SC2CCCc3cccnc32)nc2ccccc12` (stereo not shown) [Example 14, 2-[(5,6,7,8-tetrahydroquinoline-8-yl)thio]-4(3H)-quinazolinone], the IC50 (LTD4 receptor) was over 100 µM and the IC50 (5-lipoxygenase) was over 100 µM.
In the case of `Cc1ccc2nc(SC3CCCc4cccnc43)sc2c1` (stereo not shown) [Example 15, 8-[(6-methyl-2-benzothiazolyl)thio]-5,6,7,8-tetrahydroquinoline], the IC50 (LTD4 receptor) is reported as 9.5 µM and the IC50 (5-lipoxygenase) is reported as 2.3 µM.
In the case of `O=[N+]([O-])c1ccc2sc(SC3CCCc4cccnc43)nc2c1` (stereo not shown) [Example 16, 8-[(5-nitro-2-benzothiazolyl)thio]-5,6,7,8-tetrahydroquinoline], the IC50 (LTD4 receptor) is reported as over 100 µM and the IC50 (5-lipoxygenase) is reported as 2 µM.
`Cc1ccc2sc(SC3CCCc4cccnc43)nc2c1` (stereo not shown) [Example 17, 8-[(5-methyl-2-benzothiazolyl)thio]-5,6,7,8-tetrahydroquinoline] gave an IC50 (LTD4 receptor) of 7.1 µM and an IC50 (5-lipoxygenase) of 1.5 µM.
Work on `Clc1cc2nc(SC3CCCc4cccnc43)sc2cc1Cl` (stereo not shown) [Example 18, 8-[(5,6-dichloro-2-benzothiazolyl)thio]-5,6,7,8-tetrahydroquinoline] yielded an IC50 (LTD4 receptor) of 100 µM and an IC50 (5-lipoxygenase) of 45 µM.
Compound `CCSc1ccc2nc(SC3CCCc4cccnc43)sc2c1` (stereo not shown) [Example 19, 8-[(6-ethylthio-2-benzothiazolyl)thio]-5,6,7,8-tetrahydroquinoline] has an IC50 (LTD4 receptor) of 1.7 µM and an IC50 (5-lipoxygenase) of 1.1 µM.
`O=[N+]([O-])c1ccc2nc(SC3CCCc4cccnc43)sc2c1` (stereo not shown) [Example 20] gave an IC50 (LTD4 receptor) of over 100 µM and an IC50 (5-lipoxygenase) of 4 µM.
`FC(F)(F)c1ccc2sc(SC3CCCc4cccnc43)nc2c1` (stereo not shown) [Example 21, 8-[(5-trifluoromethyl-2-benzothiazolyl)thio]-5,6,7,8-tetrahydroquinoline] showed an IC50 (LTD4 receptor) of 18 µM and an IC50 (5-lipoxygenase) of 2.6 µM.
In the case of `Clc1cc(Cl)c2nc(SC3CCCc4cccnc43)sc2c1` (stereo not shown) [Example 22, 8-[(4,6-dichloro-2-benzothiazolyl)thio]-5,6,7,8-tetrahydroquinoline], the IC50 (LTD4 receptor) is reported as over 100 µM and the IC50 (5-lipoxygenase) is reported as 22 µM.
Work on `Clc1cccc2sc(SC3CCCc4cccnc43)nc12` (stereo not shown) [Example 23] yielded an IC50 (LTD4 receptor) of 33 µM and an IC50 (5-lipoxygenase) of 12 µM.
Compound `Cc1cccc2sc(SC3CCCc4cccnc43)nc12` (stereo not shown) [Example 24, 8-[(4-methyl-2-benzothiazolyl)thio]-5,6,7,8-tetrahydroquinoline] has an IC50 (LTD4 receptor) of 14 µM and an IC50 (5-lipoxygenase) of 3.5 µM.
In the case of `c1ccc(-c2nc(SC3CCCc4cccnc43)[nH]c2-c2ccccc2)cc1` (stereo not shown) [Example 25, 8-(4,5-diphenyl-1H-imidazol-2-ylthio)-5,6,7,8-tetrahydroquinoline], the IC50 (LTD4 receptor) is reported as over 100 µM, the “LTD4 receptor, remark printed beside the value” (LTD4 receptor; remark in words) is reported as “pot” and the IC50 (5-lipoxygenase) is reported as 3 µM.
With `Cn1ccnc1SC1CCCc2cccnc21` (stereo not shown) [Example 26, 8-(1-methylimidazol-2-ylthio)-5,6,7,8-tetrahydroquinoline] the IC50 (LTD4 receptor) was over 100 µM and the IC50 (5-lipoxygenase) was over 100 µM.
In the case of `c1cnc2c(c1)CCCC2Sc1nccs1` (stereo not shown) [Example 27, 8-(2-thiazolylthio)-5,6,7,8-tetrahydroquinoline], the IC50 (LTD4 receptor) is reported as over 100 µM and the IC50 (5-lipoxygenase) is reported as 25.1 µM.
